Measured values published in ChEMBL document CHEMBL1123912, “Analogues of the cytostatic and antimitogenic agents chlamydocin and HC-toxin: synthesis and biological activity of chloromethyl ketone and diazomethyl ketone functionalized cyclic tetrapeptides” (J Med Chem, 1987).
≈ marks a conversion by molar mass, not a printed value.

How the values were obtained:
Mus musculus = species on record: Mus musculus; assay: Compound was evaluated for the inhibition of Con A (concanavalin A) stimulated murine thymocyte mitogenesis.; format: functional
P815 = assay: Compound was evaluated for the inhibition of cell growth in mouse P-815 mastocytoma cells.; format: functional; details: read-out: ED50 (the source's name)

| Compound | IC50 (Mus musculus) [µg/mL] | EC50 (P815) [µg/mL] |
| --- | --- | --- |
| C[C@@H]1NC(=O)[C@H](C)NC(=O)[C@@H]2CCCN2C(=O)[C@H](CCCCCC(=O)CCl)NC1=O | 0.04 (≈ 0.0903 µM) |  |
| C[C@@H]1NC(=O)[C@H](C)NC(=O)[C@@H]2CCCN2C(=O)[C@H](CCCCCC(=O)C=[N+]=[N-])NC1=O | > 2 |  |
| C[C@@H]1NC(=O)[C@H](Cc2ccccc2)NC(=O)[C@@H]2CCCN2C(=O)[C@H](CCCCCC(=O)CCl)NC1=O | 0.1 (≈ 0.193 µM) |  |
| CC1(C)NC(=O)[C@H](CCCCCC(=O)CCl)NC(=O)[C@H]2CCCN2C(=O)[C@H](Cc2ccccc2)NC1=O | 0.01 (≈ 0.0188 µM) |  |
| CC1(C)NC(=O)[C@H](CCCCCC(=O)[C@H]2CO2)NC(=O)[C@H]2CCCN2C(=O)[C@H](Cc2ccccc2)NC1=O [CHLAMYDOCIN] | 0.003 (≈ 0.0057 µM) | 0.00036 (≈ 0.000684 µM) |
